Source: PMC4854315, “Discovery of a novel allosteric inhibitor-binding site in ERK5: comparison with the canonical kinase hinge ATP-binding site” (Acta Crystallographica. Section D, Structural Biology, 2016)

How the values were obtained:
Assay in all cases: Z'-LYTE kinase panel
Format in all cases: biochemical
TBK1 = biological target: T1, TBK1 (Homo sapiens, UniProt Q9UHD2)
T1 construct: purchased ThermoFisher (SelectScreen, Z'-LYTE)
T1 sequence (Q9UHD2 1-729): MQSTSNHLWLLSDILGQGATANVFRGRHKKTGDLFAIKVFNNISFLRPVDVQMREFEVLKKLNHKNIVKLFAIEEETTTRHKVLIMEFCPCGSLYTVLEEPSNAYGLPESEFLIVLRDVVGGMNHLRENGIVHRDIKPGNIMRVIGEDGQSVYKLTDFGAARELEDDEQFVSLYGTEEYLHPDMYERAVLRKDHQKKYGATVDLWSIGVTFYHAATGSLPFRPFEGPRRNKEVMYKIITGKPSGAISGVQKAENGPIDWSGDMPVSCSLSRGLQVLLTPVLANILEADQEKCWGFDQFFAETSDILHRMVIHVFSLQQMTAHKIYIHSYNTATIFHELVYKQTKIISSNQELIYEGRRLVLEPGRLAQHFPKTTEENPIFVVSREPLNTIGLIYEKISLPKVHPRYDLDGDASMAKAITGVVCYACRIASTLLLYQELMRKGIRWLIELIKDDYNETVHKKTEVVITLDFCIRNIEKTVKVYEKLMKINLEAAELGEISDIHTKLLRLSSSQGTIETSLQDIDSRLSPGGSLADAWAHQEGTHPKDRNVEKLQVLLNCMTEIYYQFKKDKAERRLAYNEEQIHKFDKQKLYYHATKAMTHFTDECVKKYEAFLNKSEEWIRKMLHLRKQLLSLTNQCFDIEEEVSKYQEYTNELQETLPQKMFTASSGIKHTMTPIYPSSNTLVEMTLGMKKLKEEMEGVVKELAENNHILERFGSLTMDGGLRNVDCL
Summary of the method: (§1)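 Single-point screen, 10 µM compound; % inhibition read by Z′-LYTE (FRET-based) format per standard protocol; 225-kinase panel.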

PDK1 = biological target: T2, PDK1 (Homo sapiens, UniProt O15530); settings: 10 µM compound; ATP 100
T2 construct: purchased ThermoFisher (SelectScreen, Z'-LYTE)
T2 sequence (O15530 1-556): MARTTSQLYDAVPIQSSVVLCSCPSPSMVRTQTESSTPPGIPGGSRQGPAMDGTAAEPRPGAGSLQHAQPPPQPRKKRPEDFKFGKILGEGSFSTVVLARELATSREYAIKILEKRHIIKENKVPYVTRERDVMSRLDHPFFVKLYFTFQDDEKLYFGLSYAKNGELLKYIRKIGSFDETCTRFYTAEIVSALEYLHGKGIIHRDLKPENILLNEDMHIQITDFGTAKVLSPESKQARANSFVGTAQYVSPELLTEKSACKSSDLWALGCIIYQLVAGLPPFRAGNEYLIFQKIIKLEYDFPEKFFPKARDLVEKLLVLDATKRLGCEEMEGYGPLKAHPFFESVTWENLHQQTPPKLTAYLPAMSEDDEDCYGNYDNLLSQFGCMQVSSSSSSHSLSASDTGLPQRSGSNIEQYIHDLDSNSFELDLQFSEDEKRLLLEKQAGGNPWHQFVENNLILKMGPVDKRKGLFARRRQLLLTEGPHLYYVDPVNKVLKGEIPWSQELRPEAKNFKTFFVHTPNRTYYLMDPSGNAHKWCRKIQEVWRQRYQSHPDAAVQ
Summary of the method: as §1

CLK2 = biological target: T3, CLK2 (Homo sapiens, UniProt P49760)
T3 construct: purchased ThermoFisher (SelectScreen, Z'-LYTE)
T3 sequence (P49760 whole entry): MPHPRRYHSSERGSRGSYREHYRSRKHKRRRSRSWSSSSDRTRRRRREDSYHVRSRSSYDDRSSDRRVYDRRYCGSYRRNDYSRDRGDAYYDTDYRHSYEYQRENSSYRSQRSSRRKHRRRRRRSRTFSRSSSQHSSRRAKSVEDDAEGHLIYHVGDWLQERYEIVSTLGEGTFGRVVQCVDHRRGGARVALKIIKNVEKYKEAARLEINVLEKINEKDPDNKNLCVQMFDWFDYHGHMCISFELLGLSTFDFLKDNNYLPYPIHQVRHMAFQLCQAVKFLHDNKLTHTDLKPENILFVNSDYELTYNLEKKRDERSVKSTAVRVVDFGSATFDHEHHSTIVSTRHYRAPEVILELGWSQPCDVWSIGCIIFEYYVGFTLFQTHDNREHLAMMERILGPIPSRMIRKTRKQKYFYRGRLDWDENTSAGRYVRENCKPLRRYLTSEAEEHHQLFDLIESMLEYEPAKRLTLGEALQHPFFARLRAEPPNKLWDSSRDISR
Summary of the method: as §1

ERBB2 (HER2) = biological target: T4, ERBB2 (HER2) (Homo sapiens, UniProt P04626)
T4 construct: purchased ThermoFisher (SelectScreen, Z'-LYTE)
Summary of the method: as §1

EPHA2 = biological target: T5, EPHA2 (Homo sapiens, UniProt P29317)
T5 construct: purchased ThermoFisher (SelectScreen, Z'-LYTE)
T5 sequence (P29317 24-976): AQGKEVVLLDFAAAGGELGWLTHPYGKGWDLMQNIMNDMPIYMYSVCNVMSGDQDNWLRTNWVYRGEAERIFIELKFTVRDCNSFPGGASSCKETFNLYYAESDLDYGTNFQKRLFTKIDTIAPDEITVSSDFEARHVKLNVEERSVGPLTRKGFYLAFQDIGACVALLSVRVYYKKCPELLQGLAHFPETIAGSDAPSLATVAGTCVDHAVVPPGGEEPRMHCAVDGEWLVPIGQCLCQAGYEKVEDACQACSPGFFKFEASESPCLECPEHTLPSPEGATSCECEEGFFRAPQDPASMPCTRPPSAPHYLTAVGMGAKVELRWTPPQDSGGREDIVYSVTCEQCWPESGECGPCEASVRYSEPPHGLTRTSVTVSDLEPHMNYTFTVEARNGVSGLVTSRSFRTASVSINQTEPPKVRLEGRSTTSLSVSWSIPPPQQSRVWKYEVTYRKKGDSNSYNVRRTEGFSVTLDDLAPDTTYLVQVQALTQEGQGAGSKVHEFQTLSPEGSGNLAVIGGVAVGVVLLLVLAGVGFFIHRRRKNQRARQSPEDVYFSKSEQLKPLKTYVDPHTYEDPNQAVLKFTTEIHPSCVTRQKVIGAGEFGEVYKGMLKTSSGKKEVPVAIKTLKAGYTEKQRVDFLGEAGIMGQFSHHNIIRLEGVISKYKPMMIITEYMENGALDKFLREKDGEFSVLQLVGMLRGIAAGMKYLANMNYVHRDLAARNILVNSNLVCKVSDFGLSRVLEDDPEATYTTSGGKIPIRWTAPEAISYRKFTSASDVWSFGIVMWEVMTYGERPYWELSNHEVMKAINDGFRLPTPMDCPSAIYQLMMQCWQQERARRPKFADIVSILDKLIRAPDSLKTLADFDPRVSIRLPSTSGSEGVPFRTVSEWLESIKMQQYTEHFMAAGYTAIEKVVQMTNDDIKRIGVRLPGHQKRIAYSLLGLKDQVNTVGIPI
Summary of the method: as §1

TXK = biological target: T6, TXK (Homo sapiens, UniProt P42681)
T6 construct: purchased ThermoFisher (SelectScreen, Z'-LYTE)
T6 sequence (P42681 1-527): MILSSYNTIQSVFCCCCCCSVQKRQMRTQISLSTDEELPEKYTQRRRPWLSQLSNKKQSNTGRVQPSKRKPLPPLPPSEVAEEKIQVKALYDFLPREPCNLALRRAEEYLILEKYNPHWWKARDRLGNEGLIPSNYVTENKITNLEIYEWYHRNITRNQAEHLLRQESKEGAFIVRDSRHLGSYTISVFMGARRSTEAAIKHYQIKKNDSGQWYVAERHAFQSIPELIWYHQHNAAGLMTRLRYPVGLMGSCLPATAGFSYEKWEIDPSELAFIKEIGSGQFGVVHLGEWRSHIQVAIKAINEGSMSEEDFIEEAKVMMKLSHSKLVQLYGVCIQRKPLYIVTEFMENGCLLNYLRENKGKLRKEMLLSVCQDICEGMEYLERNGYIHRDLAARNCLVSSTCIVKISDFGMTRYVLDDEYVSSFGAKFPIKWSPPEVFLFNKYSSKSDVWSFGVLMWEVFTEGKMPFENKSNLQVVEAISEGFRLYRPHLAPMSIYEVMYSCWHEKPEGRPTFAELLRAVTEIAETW
Summary of the method: as §1

CDK1/cyclin B = biological target: T7, CDK1/cyclin B (Homo sapiens, UniProt P06493)
T7 construct: purchased ThermoFisher (SelectScreen, Z'-LYTE)
Summary of the method: as §1

CDC42 BPB (MRCKB) = biological target: T8, CDC42 BPB (MRCKB) (Homo sapiens, UniProt Q9Y5S2)
T8 construct: purchased ThermoFisher (SelectScreen, Z'-LYTE)
T8 sequence (Q9Y5S2 whole entry): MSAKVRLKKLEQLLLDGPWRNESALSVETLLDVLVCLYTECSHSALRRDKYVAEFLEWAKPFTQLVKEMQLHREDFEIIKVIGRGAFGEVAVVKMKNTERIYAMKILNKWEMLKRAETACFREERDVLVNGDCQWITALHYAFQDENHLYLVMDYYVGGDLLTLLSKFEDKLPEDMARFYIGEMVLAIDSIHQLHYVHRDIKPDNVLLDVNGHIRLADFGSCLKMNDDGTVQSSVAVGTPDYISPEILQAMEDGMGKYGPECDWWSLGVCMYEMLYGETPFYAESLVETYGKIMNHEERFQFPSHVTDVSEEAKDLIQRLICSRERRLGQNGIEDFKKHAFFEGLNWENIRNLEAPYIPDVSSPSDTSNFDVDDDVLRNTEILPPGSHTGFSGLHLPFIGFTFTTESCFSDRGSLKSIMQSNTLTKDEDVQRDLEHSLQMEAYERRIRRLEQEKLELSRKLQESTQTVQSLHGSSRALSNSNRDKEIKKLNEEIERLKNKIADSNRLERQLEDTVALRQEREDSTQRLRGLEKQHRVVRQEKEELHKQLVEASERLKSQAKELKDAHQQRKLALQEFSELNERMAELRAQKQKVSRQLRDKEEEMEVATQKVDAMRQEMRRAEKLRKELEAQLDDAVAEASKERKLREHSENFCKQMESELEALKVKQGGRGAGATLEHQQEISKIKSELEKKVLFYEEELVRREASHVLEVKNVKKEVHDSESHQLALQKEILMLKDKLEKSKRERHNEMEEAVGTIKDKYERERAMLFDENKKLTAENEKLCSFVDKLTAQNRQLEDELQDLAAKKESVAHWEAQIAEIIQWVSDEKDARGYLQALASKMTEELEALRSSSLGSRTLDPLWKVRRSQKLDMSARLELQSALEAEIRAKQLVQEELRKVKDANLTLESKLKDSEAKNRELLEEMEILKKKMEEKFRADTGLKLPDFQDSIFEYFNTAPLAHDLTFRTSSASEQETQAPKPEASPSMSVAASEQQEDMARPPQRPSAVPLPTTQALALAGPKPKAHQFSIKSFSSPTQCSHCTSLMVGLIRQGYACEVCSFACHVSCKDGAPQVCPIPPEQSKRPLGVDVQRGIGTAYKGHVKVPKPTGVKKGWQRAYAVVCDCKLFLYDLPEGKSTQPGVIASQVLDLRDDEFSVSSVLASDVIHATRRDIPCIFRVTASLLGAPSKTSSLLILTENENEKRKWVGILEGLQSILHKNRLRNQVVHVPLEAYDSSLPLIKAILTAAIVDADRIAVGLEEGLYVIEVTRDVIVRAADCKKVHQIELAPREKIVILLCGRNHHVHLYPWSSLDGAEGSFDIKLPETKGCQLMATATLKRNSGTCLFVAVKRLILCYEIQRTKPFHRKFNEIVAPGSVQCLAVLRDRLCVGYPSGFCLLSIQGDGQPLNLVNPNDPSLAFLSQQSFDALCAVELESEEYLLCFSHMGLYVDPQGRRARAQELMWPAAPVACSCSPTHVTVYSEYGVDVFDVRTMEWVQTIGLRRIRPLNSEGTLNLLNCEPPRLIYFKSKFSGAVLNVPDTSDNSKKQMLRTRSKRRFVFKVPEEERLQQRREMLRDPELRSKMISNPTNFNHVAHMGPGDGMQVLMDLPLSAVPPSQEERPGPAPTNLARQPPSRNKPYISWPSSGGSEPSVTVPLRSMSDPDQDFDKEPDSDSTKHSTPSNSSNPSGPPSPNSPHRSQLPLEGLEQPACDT
Summary of the method: as §1

HIPK2 = biological target: T9, HIPK2 (Homo sapiens, UniProt Q9H2X6)
T9 construct: purchased ThermoFisher (SelectScreen, Z'-LYTE)
T9 sequence (Q9H2X6 whole entry): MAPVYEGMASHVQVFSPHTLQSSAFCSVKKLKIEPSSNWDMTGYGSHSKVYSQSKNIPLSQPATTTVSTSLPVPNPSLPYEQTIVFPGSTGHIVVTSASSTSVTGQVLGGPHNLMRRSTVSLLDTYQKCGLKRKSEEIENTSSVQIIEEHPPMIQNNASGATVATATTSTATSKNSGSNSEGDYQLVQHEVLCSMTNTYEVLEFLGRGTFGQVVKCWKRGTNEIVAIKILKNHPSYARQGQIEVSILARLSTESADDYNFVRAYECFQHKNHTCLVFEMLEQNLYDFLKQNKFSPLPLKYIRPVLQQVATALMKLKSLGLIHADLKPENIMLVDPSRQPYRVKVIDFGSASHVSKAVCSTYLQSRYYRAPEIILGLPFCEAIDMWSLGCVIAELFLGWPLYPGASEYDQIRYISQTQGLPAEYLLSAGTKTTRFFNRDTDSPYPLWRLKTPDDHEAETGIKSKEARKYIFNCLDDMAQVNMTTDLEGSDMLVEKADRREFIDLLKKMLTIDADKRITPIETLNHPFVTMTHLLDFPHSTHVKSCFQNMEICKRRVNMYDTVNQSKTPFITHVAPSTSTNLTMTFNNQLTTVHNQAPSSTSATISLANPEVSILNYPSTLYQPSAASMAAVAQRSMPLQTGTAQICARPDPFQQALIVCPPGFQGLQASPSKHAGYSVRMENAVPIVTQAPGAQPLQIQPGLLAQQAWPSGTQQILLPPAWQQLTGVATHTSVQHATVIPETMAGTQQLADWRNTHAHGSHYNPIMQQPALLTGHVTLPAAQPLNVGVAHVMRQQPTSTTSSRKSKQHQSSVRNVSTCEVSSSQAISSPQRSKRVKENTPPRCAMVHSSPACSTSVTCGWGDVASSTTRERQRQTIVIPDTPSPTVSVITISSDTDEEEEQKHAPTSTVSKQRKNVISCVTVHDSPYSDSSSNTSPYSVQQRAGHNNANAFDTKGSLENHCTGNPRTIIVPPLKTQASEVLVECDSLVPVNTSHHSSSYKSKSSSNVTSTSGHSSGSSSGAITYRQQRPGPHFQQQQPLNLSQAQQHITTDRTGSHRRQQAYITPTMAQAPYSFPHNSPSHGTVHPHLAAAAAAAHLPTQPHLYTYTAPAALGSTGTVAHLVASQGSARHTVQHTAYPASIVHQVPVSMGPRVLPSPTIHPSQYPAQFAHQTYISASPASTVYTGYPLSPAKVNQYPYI
Summary of the method: as §1

MAPKAPK2 = biological target: T10, MAPKAPK2 (Homo sapiens, UniProt P49137)
T10 construct: purchased ThermoFisher (SelectScreen, Z'-LYTE)
T10 sequence (P49137 whole entry): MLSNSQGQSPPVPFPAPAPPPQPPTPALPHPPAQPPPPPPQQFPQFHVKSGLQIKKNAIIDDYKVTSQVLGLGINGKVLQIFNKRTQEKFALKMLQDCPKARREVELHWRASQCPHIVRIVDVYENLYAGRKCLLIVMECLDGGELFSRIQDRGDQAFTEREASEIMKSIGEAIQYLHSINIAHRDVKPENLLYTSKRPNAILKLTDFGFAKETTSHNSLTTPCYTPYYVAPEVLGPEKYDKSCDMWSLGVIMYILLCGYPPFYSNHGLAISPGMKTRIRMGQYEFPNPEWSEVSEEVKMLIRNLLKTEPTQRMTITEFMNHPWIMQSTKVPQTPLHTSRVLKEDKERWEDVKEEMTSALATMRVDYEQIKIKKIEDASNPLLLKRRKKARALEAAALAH
Summary of the method: as §1

PIM2 = biological target: T11, PIM2 (Homo sapiens, UniProt Q9P1W9)
T11 construct: purchased ThermoFisher (SelectScreen, Z'-LYTE)
T11 sequence (Q9P1W9 whole entry): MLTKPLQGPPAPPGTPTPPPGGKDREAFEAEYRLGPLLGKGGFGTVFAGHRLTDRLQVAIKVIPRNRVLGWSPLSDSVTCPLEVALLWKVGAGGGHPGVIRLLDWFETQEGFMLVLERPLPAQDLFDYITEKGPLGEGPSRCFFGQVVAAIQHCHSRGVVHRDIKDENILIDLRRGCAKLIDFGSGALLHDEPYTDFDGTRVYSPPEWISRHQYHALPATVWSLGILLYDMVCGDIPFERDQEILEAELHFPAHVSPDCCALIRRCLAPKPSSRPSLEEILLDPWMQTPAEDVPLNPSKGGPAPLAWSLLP
Summary of the method: as §1

MELK = biological target: T12, MELK (Homo sapiens, UniProt Q14680)
T12 construct: purchased ThermoFisher (SelectScreen, Z'-LYTE)
Summary of the method: as §1

MAPK8 (JNK1) = biological target: T13, MAPK8 (JNK1) (Homo sapiens, UniProt P45983); settings: 10 µM compound; ATP 100
T13 construct: purchased ThermoFisher (SelectScreen, Z'-LYTE)
Summary of the method: as §1

Compound	inhibition at 10 µM (TBK1) [%]	inhibition at 10 µM (PDK1) [%]	inhibition at 10 µM (CLK2) [%]	inhibition at 10 µM (ERBB2 (HER2)) [%]	inhibition at 10 µM (EPHA2) [%]	inhibition at 10 µM (TXK) [%]	inhibition at 10 µM (CDK1/cyclin B) [%]	inhibition at 10 µM (CDC42 BPB (MRCKB)) [%]	inhibition at 10 µM (HIPK2) [%]	inhibition at 10 µM (MAPKAPK2) [%]	inhibition at 10 µM (PIM2) [%]	inhibition at 10 µM (MELK) [%]	inhibition at 10 µM (MAPK8 (JNK1)) [%]	other results
Cc1ncc(-c2nc(Nc3ccc(C(=O)NCCN4CCCCC4)cc3)ncc2F)n1C(C)C [Compound 3]	86	50	92	-1.66	69	40	96	8	93	52	40	100	96	–
Cc1cc(Nc2nc(N)nn2C(=O)NC(C)C)ccc1Cl [Compound 5]	27	8	39	-29	-1.47	-9	56	5.45	45	6.56	-13	4.73	-11	–
XMD8-92 [Compound 2, reference compound]	–	–	–	–	–	–	–	–	–	–	–	–	–	TBK1 % Inhibition (TBK1; 10 µM compound, ATP Km app): 43%; PDK1 % Inhibition (PDK1): 21%; CLK2 % Inhibition (CLK2; 10 µM compound, ATP Km app): 6%; ERBB2 (HER2) % Inhibition (ERBB2 (HER2); 10 µM compound, ATP Km app): -17%; EPHA2 % Inhibition (EPHA2; 10 µM compound, ATP Km app): -9.52%; TXK % Inhibition (TXK; 10 µM compound, ATP Km app): 73%; CDK1/cyclin B % Inhibition (CDK1/cyclin B; 10 µM compound, ATP Km app): 8.43%; CDC42 BPB (MRCKB) % Inhibition (CDC42 BPB (MRCKB); 10 µM compound, ATP Km app): -11%; HIPK2 % Inhibition (HIPK2; 10 µM compound, ATP Km app): 2%; MAPKAPK2 % Inhibition (MAPKAPK2; 10 µM compound, ATP Km app): 93%; PIM2 % Inhibition (PIM2; 10 µM compound, ATP Km app): 22%; MELK % Inhibition (MELK; 10 µM compound, ATP Km app): 80%; MAPK8 (JNK1) % Inhibition (MAPK8 (JNK1)): 14%
